Literature values in PMC9177108 (The Oncologist, 2022).

How the values were obtained:
patients with RM-NPC = conditions: 37 recruited patients with RM-NPC; cited from earlier work
NPC patients = conditions: 58 NPC patients, cited from earlier work
[1] = system: relapsed and refractory patients with NPC; conditions: cited from earlier work
patients with NPC = conditions: 33 patients with NPC; cited from earlier work
[2] = system: patients with advanced NPC; conditions: first-line regimen; cited from earlier work

In the case of `CNC(=O)c1ccccc1Sc1ccc2c(/C=C/c3ccccn3)n[nH]c2c1` [Axitinib], the DCR (patients with RM-NPC) is given as 78.4, the ORR (patients with RM-NPC) is given as 19% and the “median PFS” value (patients with RM-NPC) is given as 5 months. The “overall survival (OS)” value (patients with RM-NPC) was 10 months.

In the case of `CCN(CC)CCN1CCc2[nH]c(/C=C3\C(=O)Nc4ccc(F)cc43)c(C)c2C1=O` [Famitinib], the ORR (NPC patients) is listed as 6.9%, the “median PFS” value (NPC patients) is listed as 3.2 months and the DCR (NPC patients; at 3 months) is listed as 32.8%.

In the case of `N#CC1(c2ccc(NC(=O)c3cccnc3NCc3ccncc3)cc2)CCCC1` [apatinib], the ORR ([1]; 51 patients (16/51), no response to first- or second-line chemotherapy) is given as 31.4%, the OS ([1]; 51 patients) is given as 16 months and the “median PFS” value ([1]; 51 patients) is given as 9 months.

For `Cc1ccc(Nc2nccc(N(C)c3ccc4c(C)n(C)nc4c3)n2)cc1S(N)(=O)=O` [pazopanib], the ORR (patients with NPC) is listed as 6.1%.

In the case of cisplatin and 5-fluorouracil, the “median PFS” value [2] is given as 11-14 months and the response rate [2] is given as 66-78%.
